Tests used:
[1] = rat, in vivo, 10 mg/kg; cited from earlier work
influenza virus = assay type: cell-based
in vitro [2] = settings: human
in vitro [3] = settings: African green monkey
IFNα/β mRNA = assay type: cell-based

## O=C(O[C@@H]1[C@@H](O)[C@H](Oc2cc(O)c(C(=O)CCc3ccccc3)c(O)c2)O[C@@H]2COC(=O)c3cc(O)c(O)c(O)c3-c3c(cc(O)c(O)c3O)C(=O)O[C@@H]12)c1cc(O)c(O)c(O)c1 [Compound 46, Thonningianin A]
[1]
  t₁/₂: 3.69 h
Influenza virus
  effect on influenza virus replication: did not significantly affect
In vitro [2]
  CC50: 20.2 µM
In vitro [3]
  CC50: 10.6 µM
IFNα/β mRNA
  effect on IFNα/β mRNA expression levels: did not significantly affect

Reference: paper PMC11966994 (Emerging Microbes & Infections, 2025)
